# Source: US20070020196A1, “Inhalant formulation containing sulfoalkyl ether cyclodextrin and corticosteroid prepared from a unit dose suspension” (priority 2003, published 2007)
# Columns and labels:
# [1] = Solubility of selected steroids enhanced by cyclodextrins (phase solubility); conditions: thermodynamic from solid
# [2] = Molar ratio SAE-CD:corticosteroid at saturated solubility (phase solubility binding study); assay type: physicochemical
# physchem = conditions: thermodynamic from solid
# [3] = Light stability of budesonide under fluorescent lights; assay type: physicochemical
# Text: Samples of the above solutions were also placed in a chamber under a bank of fluorescent lights. Vials were periodically removed and assayed for budesonide. […] The loss of budesonide was first order and independent of pH.
# [4] = male, human, in vivo; cited from earlier work
# [5] = aqueous cyclodextrin solution, aqueous with cosolvent or surfactant or cyclodextrin, Solubility of steroid, (SBE)2.4 β-CD 0.04 M
# [6] = aqueous cyclodextrin solution, aqueous with cosolvent or surfactant or cyclodextrin, Solubility of steroid, (SBE)5.2 γ-CD 0.04 M
# [7] = aqueous cyclodextrin solution, aqueous with cosolvent or surfactant or cyclodextrin, Solubility of steroid, (SBE)5.2 γ-CD 0.1 M
# [8] = aqueous cyclodextrin solution, aqueous with cosolvent or surfactant or cyclodextrin, Solubility of steroid, (SBE)6.1 γ-CD 0.04 M
# [9] = aqueous cyclodextrin solution, aqueous with cosolvent or surfactant or cyclodextrin, Solubility of steroid, (SBE)6.1 γ-CD 0.08 M
# [10] = aqueous cyclodextrin solution, aqueous with cosolvent or surfactant or cyclodextrin, Solubility of steroid, (SBE)6.7 β-CD 0.0465 M
# [11] = aqueous cyclodextrin solution, aqueous with cosolvent or surfactant or cyclodextrin, Solubility of steroid, (SBE)6.7 β-CD 0.0950 M
# [12] = aqueous cyclodextrin solution, aqueous with cosolvent or surfactant or cyclodextrin, Solubility of steroid, (SBE)7 α-CD 0.04 M
# [13] = aqueous cyclodextrin solution, aqueous with cosolvent or surfactant or cyclodextrin, Solubility of steroid, (SBE)7 α-CD 0.08 M
# [14] = aqueous cyclodextrin solution, aqueous with cosolvent or surfactant or cyclodextrin, Solubility of steroid, (SBE)9.7 γ-CD […]
# [15] = aqueous cyclodextrin solution, aqueous with cosolvent or surfactant or cyclodextrin, Solubility of steroid, (SPE)5.4 γ-CD 0.04 M
# [16] = aqueous cyclodextrin solution, aqueous with cosolvent or surfactant or cyclodextrin, Solubility of steroid, (SPE)5.4 γ-CD 0.08 M
# [17] = aqueous cyclodextrin solution, aqueous with cosolvent or surfactant or cyclodextrin, Solubility of steroid, (SPE)7 β-CD 0.04 M
# [18] = aqueous cyclodextrin solution, aqueous with cosolvent or surfactant or cyclodextrin, Solubility of steroid, (SPE)7 β-CD 0.08 M
# [19] = aqueous cyclodextrin solution, aqueous with cosolvent or surfactant or cyclodextrin, Solubility of steroid, γ-CD 0.035 M
# [20] = aqueous cyclodextrin solution, aqueous with cosolvent or surfactant or cyclodextrin, Solubility of steroid, γ-CD 0.1 M
# [21] = aqueous cyclodextrin solution, aqueous with cosolvent or surfactant or cyclodextrin, [Steroid] solubility, (SBE)6.1 γ-CD (0.04 M)
# [22] = aqueous cyclodextrin solution, aqueous with cosolvent or surfactant or cyclodextrin, [Steroid] solubility, Captisol (0.04 M)
# [23] = water, Solubility of steroid, H2O, no CD
# [24] = water, [Steroid] Intrinsic Solubility (in H2O), in H2O
# [25] = aqueous with cosolvent or surfactant or cyclodextrin, [Steroid] solubility, (SBE)6.1 γ-CD (0.04 M)
# [26] = aqueous with cosolvent or surfactant or cyclodextrin, [Steroid] solubility, Captisol (0.04 M)
# [27] = water, [Steroid] Intrinsic Solubility (in H2O)
# [28] = aqueous cyclodextrin solution, aqueous with cosolvent or surfactant or cyclodextrin, Solubility of steroid, α-CD 0.08 M
# [29] = aqueous cyclodextrin solution, aqueous with cosolvent or surfactant or cyclodextrin, Solubility of steroid, β-CD 0.015M
SMILES,"solubility [1, 7]","solubility [1, 8]","solubility [1, 9]","solubility [1, 10]","solubility [1, 11]","solubility [1, 12]","solubility [1, 13]","solubility [1, 14]","solubility [1, 15]","solubility [1, 16]","solubility [1, 17]","solubility [1, 18]","solubility [1, 19]","solubility [1, 20]","solubility [1, 21]","solubility [1, 22]","solubility [1, 23]","solubility [1, 24]",Approximate Molar Ratio at Saturated Solubility of Corticosteroid (SAE-CD: corticosteroid) ([2]; SAE-α-CD),Approximate Molar Ratio at Saturated Solubility of Corticosteroid (SAE-CD: corticosteroid) ([2]; SAE-β-CD),other results
CC1(C)O[C@@H]2C[C@H]3[C@@H]4C[C@H](F)C5=CC(=O)C=C[C@]5(C)[C@H]4[C@@H](O)C[C@]3(C)[C@]2(C(=O)CO)O1 [Flunisolide],,,,,,,,,,,,,,,,,,,,~16,solubility (physchem; [25]): 4.55 mM; solubility (physchem; [26]): 2.62 mM; solubility (physchem; [27]): 0.113 mM; Approximate Molar Ratio at Saturated Solubility of Corticosteroid (SAE-CD: corticosteroid) ([2]; SAE-γ-CD): ~9
"C[C@@H]1C[C@H]2[C@@H]3CCC4=CC(=O)C=C[C@]4(C)[C@@]3(Cl)[C@@H](O)C[C@]2(C)[C@@]1(O)C(=O)CCl [Mometasone, mometasone]",8890 µM,8410 µM,14200 µM,1220 µM,2260 µM,550 µM,1170 µM,8900 µM,,14700 µM,1220 µM,2230 µM,27.1 µM,0.9 µM,,,,,~73,~33,"solubility ([1]; aqueous cyclodextrin solution, aqueous with cosolvent or surfactant or cyclodextrin, Solubility of steroid, α-CD 0.04 M): 84 µM; solubility [1, 28]: 285 µM; solubility [1, 29]: 129 µM"
C[C@]12C=CC(=O)C=C1CC[C@@H]1[C@@H]2C(=O)C[C@@]2(C)[C@H]1CC[C@]2(O)C(=O)CO [Prednisone],,,,,,,,,,,,,,,,,,,,,solubility (physchem; [25]): 13.1 mM; solubility (physchem; [26]): 18.3 mM; solubility (physchem; [27]): 0.505 mM
"C[C@@H]1C[C@H]2[C@@H]3CCC4=CC(=O)C=C[C@]4(C)[C@@]3(Cl)[C@@H](O)C[C@]2(C)[C@@]1(OC(=O)c1ccco1)C(=O)CCl [Mometasone furoate, mometasone furoate]",939 µM,415 µM,929 µM,164 µM,311 µM,301 µM,355 µM,940 µM,287 µM,513 µM,72.3 µM,108 µM,141 µM,658 µM,415 µM,164 µM,18.2 µM,18.2 µM,~141,~274,"solubility [1, 28]: 2.7 µM; solubility [1, 29]: 13.6 µM; Approximate Molar Ratio at Saturated Solubility of Corticosteroid (SAE-CD: corticosteroid) ([2]; SAE-γ-CD): ~101"
CCNC(=O)[C@@H]1CCCN1C(=O)[C@H](CCCNC(=N)N)NC(=O)[C@H](CC(C)C)NC(=O)[C@@H](CC(C)C)NC(=O)[C@H](Cc1ccc(O)cc1)NC(=O)[C@H](CO)NC(=O)[C@H](Cc1c[nH]c2ccccc12)NC(=O)[C@H](Cc1c[nH]cn1)NC(=O)[C@@H]1CCC(=O)N1 [leuprolide acetate],,,,,,,,,,,,,,,,,,,,,Bioavailability [4]: 2.4%; Bioavailability compared with i.v. [4]: 94%
"CC1(C)O[C@@H]2C[C@H]3[C@@H]4CCC5=CC(=O)C=C[C@]5(C)[C@@]4(F)[C@@H](O)C[C@]3(C)[C@]2(C(=O)CO)O1 [Triamcinolone acetonide, triamcinolone acetonide]",,10600 µM,23900 µM,4570 µM,10200 µM,,,,,,,,1980 µM,1390 µM,10600 µM,4570 µM,35.6 µM,35.6 µM,,~9,

# More lines, main results first:
"solubility [1, 7]","solubility [1, 8]","solubility [1, 9]","solubility [1, 10]","solubility [1, 11]","solubility [1, 12]","solubility [1, 13]","solubility [1, 14]","solubility [1, 15]","solubility [1, 16]","solubility [1, 17]","solubility [1, 18]","solubility [1, 19]","solubility [1, 20]","solubility [1, 21]","solubility [1, 22]","solubility [1, 23]","solubility [1, 24]",SMILES,Approximate Molar Ratio at Saturated Solubility of Corticosteroid (SAE-CD: corticosteroid) ([2]; SAE-α-CD),Approximate Molar Ratio at Saturated Solubility of Corticosteroid (SAE-CD: corticosteroid) ([2]; SAE-β-CD),other results
2150 µM,518 µM,1210 µM,54.1 µM,79.9 µM,83.7 µM,114 µM,1030 µM,717 µM,1400 µM,10.5 µM,21.2 µM,735 µM,221 µM,518 µM,54.1 µM,3.9 µM,3.9 µM,"CCC(=O)O[C@]1(C(=O)SCF)[C@H](C)C[C@H]2[C@@H]3C[C@H](F)C4=CC(=O)C=C[C@]4(C)[C@@]3(F)[C@@H](O)C[C@@]21C [Fluticasone propionate, fluticasone propionate]",~501,~797,"solubility [1, 5]: 17 µM; solubility ([1]; aqueous cyclodextrin solution, aqueous with cosolvent or surfactant or cyclodextrin, Solubility of steroid, (SBE)2.4 β-CD 0.08 M): 24.6 µM; solubility [1, 6]: 791 µM; solubility ([1]; aqueous cyclodextrin solution, aqueous with cosolvent or surfactant or cyclodextrin, Solubility of steroid, (SBE)9.7 γ-CD 0.04 M): 545 µM; Approximate Molar Ratio at Saturated Solubility of Corticosteroid (SAE-CD: corticosteroid) ([2]; SAE-γ-CD): ~51"
8620 µM,3070 µM,6990 µM,2550 µM,4280 µM,3480 µM,5980 µM,4530 µM,4010 µM,7740 µM,,2420 µM,101 µM,41 µM,3070 µM,2550 µM,65.9 µM,66 µM,"CCCC1O[C@@H]2C[C@H]3[C@@H]4CCC5=CC(=O)C=C[C@]5(C)[C@H]4[C@@H](O)C[C@]3(C)[C@]2(C(=O)CO)O1 (stereo partly drawn) [Budesonide, (R,S)-11β,16α,17,21-tetrahydroxypregna-1,4-diene-3,20-dione cyclic 16,17-acetal with butyraldehyde]",~12,~16,"Light Stability, Pseudo 1st Order Rate constant ([3]; Captisol, pH 4): 0.0585 h⁻¹; Light Stability, Pseudo 1st Order Rate constant ([3]; Captisol, pH 6): 0.0562 h⁻¹; Light Stability, Pseudo 1st Order Rate constant ([3]; No Captisol, pH 4): 0.0812 h⁻¹; Light Stability, Pseudo 1st Order Rate constant ([3]; No Captisol, pH 6): 0.0822 h⁻¹; solubility [1, 6]: 3760 µM; solubility [1, 29]: 813 µM; Approximate Molar Ratio at Saturated Solubility of Corticosteroid (SAE-CD: corticosteroid) ([2]; SAE-γ-CD (SBE5.2)): ~10.8 (SBE5.2),; Approximate Molar Ratio at Saturated Solubility of Corticosteroid (SAE-CD: corticosteroid) ([2]; SAE-γ-CD (SBE6.1)): ~13 (SBE6.1),; Approximate Molar Ratio at Saturated Solubility of Corticosteroid (SAE-CD: corticosteroid) ([2]; SAE-γ-CD (SPE5.4)): ~10.1 (SPE5.4)"
14400 µM,5760 µM,9490 µM,1260 µM,2160 µM,,,8950 µM,7600 µM,13900 µM,939 µM,1510 µM,,822 µM,,,1.6 µM,,"C[C@@H]1C[C@H]2[C@@H]3C[C@H](F)C4=CC(=O)C=C[C@]4(C)[C@@]3(F)[C@@H](O)C[C@]2(C)[C@@]1(O)C(=O)SCF [Fluticasone, fluticasone]",,~32,"solubility [1, 5]: 128 µM"
